{
  "source": "patent US20200054608A1",
  "about": "“ALPHA ADRENERGIC AGONISTS FOR THE TREATMENT OF TISSUE TRAUMA” (Allergan, Inc., priority 2013, published 2020)",
  "key": {"SKH1 hairless mice [1]": {"test_system": "SKH1 hairless mice", "test": "UVB-induced sunburn model: erythema on back skin measured with a chromameter", "type": "in vivo", "experimental": "(§1) A xenon arc lamp (Newport Corp, USA) was used as a source of UVB. SKH1 hairless mice, lying on their stomachs with their left sides covered, were exposed to 120 mJ/cm2 UVB radiation. Regions of back skin were treated topically with oxymetazoline hydrochloride 0.5% gel at 20 min, 4 hr or 8 hr post-UVB. An additional group had the vehicle applied topically at 20 min post UVB exposure. Erythema on the exposed and unexposed back was measured using a chromameter (Konica Minolta) at 2 and 4 hr post-UVB exposure. Skin samples were collected 48 hr following UVB exposure and examined histologically to assess the extent of injury."}, "SKH1 hairless mice [2]": {"test_system": "SKH1 hairless mice", "test": "UVB-induced sunburn model: histological examination of skin samples 48 hr following UVB exposure", "type": "in vivo", "settings": "for outcome of healing (overall healing, histology) / mice with overall epidermal healing fair to good: 48 hr; for outcome of healing (overall healing, histology): hydrochloride; for mice with overall epidermal healing fair to good: vehicle 0%", "experimental": "as §1"}},
  "data": [
    {"substance": "oxymetazoline hydrochloride", "values": [
      {"measurement": "inhibition of erythema", "setting": "SKH1 hairless mice [1]; 0.5% topical gel applied 20 minutes following 120 mJ/cm2 UVB, 2 hr timepoint, p<0.001", "value": "almost completely inhibited the erythema"},
      {"measurement": "inhibition of erythema", "setting": "SKH1 hairless mice [1]; 0.5% topical gel applied 20 minutes following UVB, 4 hr post-UVB exposure", "value": "no inhibition of the erythema"},
      {"measurement": "epidermal separation", "setting": "SKH1 hairless mice [2]; 0.5% topical applied 20 minutes post UVB, 48 hours, n=6", "value": "reduced the occurrence and/or severity of epidermal separation"},
      {"measurement": "outcome of healing (overall healing, histology)", "setting": "SKH1 hairless mice [2]; 0.5% topical applied 20 minutes post UVB, vs vehicle controls", "value": "potentially improved the outcome"},
      {"measurement": "outcome of healing (overall healing, histology)", "setting": "SKH1 hairless mice [2]; 0.5% topical applied 20 minutes post UVB, vs vehicle controls, listed as oxymetazoline", "value": "slightly improved the outcome of healing"},
      {"measurement": "epidermal separation", "setting": "SKH1 hairless mice [2]; 0.5% topical applied 4 hours post UVB, 48 hours, n=6", "value": "reduced the occurrence and/or severity of epidermal separation"},
      {"measurement": "outcome of healing (overall healing, histology)", "setting": "SKH1 hairless mice [2]; 0.5% topical applied 4 hours post UVB, vs concurrent and historical vehicle controls", "value": "more positive outcome"},
      {"measurement": "outcome of healing (overall healing, histology)", "setting": "SKH1 hairless mice [2]; 0.5% topical applied 4 hours post UVB, vs concurrent and historical vehicle controls, listed as oxymetazoline", "value": "improved the outcome of healing"},
      {"measurement": "adaptive response in histological sections (epidermal proliferation, adaptive hyperplasia)", "setting": "SKH1 hairless mice [2]; 0.5% topical applied 8 hours following injury, skin collected at 48 hours, vs vehicle-treated", "value": "greater degree of a positive adaptive response"},
      {"measurement": "epidermal hyperplasia (adaptive healing response)", "setting": "SKH1 hairless mice [2]; 0.5% topical applied 8 hours following the injury, 48 hours, n=6", "value": "resulted in more individuals who had progressed to advanced healing"},
      {"measurement": "epidermal separation", "setting": "SKH1 hairless mice [2]; 0.5% topical applied 8 hours post UVB, 48 hours, n=6", "value": "reduced the occurrence and/or severity of epidermal separation"},
      {"measurement": "outcome of healing (overall healing, histology)", "setting": "SKH1 hairless mice [2]; 0.5% topical applied 8 hours post UVB, vs concurrent and historical vehicle controls", "value": "more positive outcome"},
      {"measurement": "outcome of healing (overall healing, histology)", "setting": "SKH1 hairless mice [2]; 0.5% topical applied 8 hours post UVB, vs concurrent and historical vehicle controls, listed as oxymetazoline", "value": "improved the outcome of healing"},
      {"measurement": "mice with overall epidermal healing fair to good", "setting": "SKH1 hairless mice [2]; 0.5% topical applied at 20 minutes post UVB, n=6", "value": 33, "unit": "%"},
      {"measurement": "mice with overall epidermal healing fair to good", "setting": "SKH1 hairless mice [2]; 0.5% topical applied at 4 hours post UVB, n=6", "value": 50, "unit": "%"},
      {"measurement": "mice with overall epidermal healing fair to good", "setting": "SKH1 hairless mice [2]; 0.5% topical applied at 8 hours post UVB, n=6", "value": 67, "unit": "%"}
    ]}
  ]
}
